Reference: patent US6365100B1, “Polymethylenepolyamine dipropionamides as environmentally safe inhibitors of the carbon corrosion of iron” (CECA, S.A., priority 1997, dated 2002)

Experiments:
[1] = Carbonic corrosion-inhibitory efficiency by polarization resistance in CO2-saturated NACE-type solution; details: 25° C., reading after 6 hours
Procedure: The experimental procedures intended to evaluate the corrosion-inhibitory efficiencies in carbon dioxide-saturated medium of the products used (A, B and C of Example 1) are described in this example. In order to simulate the corrosive medium, a solution of NACE type containing 50 g/l of NaCl and 0.25 mg/l of acetic acid, saturated by continuously bubbling CO2 through, depending on the case, and with inhibitor added or not added, is used.
The process is performed in a thermostatically regulated 600 ml Pyrex cell including, besides a gas inlet and outlet, three electrodes coupled to the cell by ground joints, namely a carbon-steel working electrode whose surface of contact with the corrosive solution is 1 cm^2, a saturated calomel reference electrode and a platinum counterelectrode having a very large surface of contact with the corrosive solution. 500 ml of the corrosive solution is placed in the cell, as control or with inhibitor added, after which the counterelectrode and the reference electrode are put in place. The solution is de-aerated by bubbling nitrogen through for one hour and is then saturated with CO2 by bubbling for at least one hour. In order to ensure good saturation with CO2, this gas is left to bubble through throughout the experiment.
The rate of corrosion Vcorr is measured by a method of measuring polarization resistance, which is known in the art. The corrosion rate reading is taken after stabilization for 6 hours.
The percentage of protection (%P) which allows the corrosion-inhibitory efficiency of the test product to be expressed is given by the relationship:
%P={(V^0corr−V^icorr)/V^0corr}×100
where V^0corr=rate of corrosion without inhibitor
V^icorr=rate of corrosion in the presence of a dose of inhibitor.
Table II collates the percentages of protection at room temperature (25° C.) as a function of the nature of the polymethylenepolyaminodipropionamides used and their dose.

[2] = tested on: Photobacterium phosphoreum; assay: Microtox bacterial ecotoxicity test (AFNOR NF T90-320); format: cell-based; details: lethal concentration to destroy 50% of the population in 15 minutes
Procedure: (§1) The ecotoxicity measurements for various polymethylenepolyaminedipropionamides were carried out on a bacterium (Photobacterium phosphoreum) and on an alga (Skeletonema costatum) . The bacterial test is the Microtox test carried out according to AFNOR standard NF T90-320. The toxicities on Skeletonema costatum are determined according to the method ISO/DIS 10253. The Microtox toxicity is expressed as LC50 (lethal concentration in mg/l to destroy 50% of the population in 15 minutes). On Skeletonema costatum, the toxicity is expressed as EC50 (effective concentration in mg/l to inhibit the growth of 50% of the population in 72 hours).

Skeletonema costatum = assay: Algal ecotoxicity test (ISO/DIS 10253); format: cell-based; details: concentration to inhibit the growth of 50% of the population in 72 hours
Procedure: as §1

| Structure (SMILES) | PERCENTAGE OF PROTECTION (%) ([1]; dose 10 ppm) | PERCENTAGE OF PROTECTION (%) ([1]; dose 20 ppm) | PERCENTAGE OF PROTECTION (%) ([1]; dose 50 ppm) | PERCENTAGE OF PROTECTION (%) ([1]; dose 100 ppm) | Toxicity Microtox (LC50) [2] [µg/mL] | Toxicity Skeletonema costatum (EC50) (Skeletonema costatum) [µg/mL] |
| --- | --- | --- | --- | --- | --- | --- |
| NC(=O)CCNCCCNCCNCCCNCCC(N)=O [Molecule C, H2NCO—(CH2)2—NH—(CH2)3—NH—(CH2)2—NH—(CH2)3—NH—(CH2)2—CONH2] | 63 | 70 | 73 | 82 | 127 | 5 to 10 |
| NC(=O)CCNCCNCCNCCC(N)=O [Molecule A, H2NCO—(CH2)2—NH—[—(CH2)2 —NH—]2—(CH2)2—CONH2 (RN 92009-86-4)] | 24 | 44 | 48 | 53 | 128 | – |
| NC(=O)CCNCCNCCNCCNCCC(N)=O [Molecule B, H2NCO—(CH2)2—NH—[—(CH2)2 —NH—]3—CH2)2—CONH2] | 34 | 43 | 48 | 56 | 104 | – |
